Results as given in ChEMBL document CHEMBL1152824, “A novel insertion sequence, ISPA26, in oprD of Pseudomonas aeruginosa is associated with carbapenem resistance” (2007).
Values after ≈ are worked out from the molar mass of the structure shown.

Columns and labels:
Pseudomonas aeruginosa [1] = experiment: Antibacterial activity against Pseudomonas aeruginosa cystic fibrosis sputum isolate 286 carrying insertion sequence ISPa26 by disk susceptibility test; type: functional
Pseudomonas aeruginosa [2] = experiment: microbe, parasite or virus in culture
Description: Antibacterial activity against Pseudomonas aeruginosa cystic fibrosis sputum isolate 529 carrying insertion sequence ISPa26 by disk susceptibility test

Pseudomonas aeruginosa [3] = experiment: Antibacterial activity against Pseudomonas aeruginosa tracheal aspirate isolate 8 carrying insertion sequence ISPa26 inserted into oprD gene by disk susceptibility test; type: functional
Pseudomonas aeruginosa [4] = experiment: Antibacterial activity against Pseudomonas aeruginosa blood isolate 1 carrying insertion sequence ISPa26 by disk susceptibility test; type: functional
Pseudomonas aeruginosa [5] = experiment: Antibacterial activity against Pseudomonas aeruginosa tracheal aspirate isolate 12 carrying insertion sequence ISPa26 by disk susceptibility test; type: functional
Pseudomonas aeruginosa [6] = experiment: Antibacterial activity against Pseudomonas aeruginosa tracheal aspirate isolate 7 carrying insertion sequence ISPa26 by disk susceptibility test; type: functional
Pseudomonas aeruginosa [7] = experiment: Antibacterial activity against Pseudomonas aeruginosa pus isolate 6 carrying insertion sequence ISPa26 by disk susceptibility test; type: functional

Structure (SMILES) | MIC (Pseudomonas aeruginosa [1]) [mg/L] | MIC (Pseudomonas aeruginosa [2]) [mg/L] | MIC (Pseudomonas aeruginosa [3]) [mg/L] | MIC (Pseudomonas aeruginosa [4]) [mg/L] | MIC (Pseudomonas aeruginosa [5]) [mg/L] | MIC (Pseudomonas aeruginosa [6]) [mg/L] | MIC (Pseudomonas aeruginosa [7]) [mg/L]
C[C@@H](O)[C@H]1C(=O)N2C(C(=O)O)=C(SCCNC=N)C[C@H]12 [IMIPENEM ANHYDROUS] | > 32 | 1 (≈ 3.34 µM) | > 32 | > 32 | 2 (≈ 6.68 µM) | > 32 | > 32
C[C@@H](O)[C@H]1C(=O)N2C(C(=O)O)=C(S[C@@H]3CN[C@H](C(=O)N(C)C)C3)[C@H](C)[C@H]12 [MEROPENEM] | > 32 | 2 (≈ 5.22 µM) | > 32 | > 32 | 3 (≈ 7.82 µM) | 6 (≈ 15.6 µM) | 6 (≈ 15.6 µM)
